# Assay results as given in ChEMBL document CHEMBL1150537, “Synthesis of echiguanine analogs and their ribofuranosyl glycosides that inhibit phosphatidylinositol 4-kinase” (Bioorg Med Chem Lett, 1997).
# Assays:
# [1] = target: T1, Phosphatidylinositol 4-kinase, PI4K (Homo sapiens, UniProt Q9BTU6+Q8TCG2+Q9UBF8+P42356); assay: Inhibition of Phosphatidylinositol 4-kinase of human epidermoid carcinoma A431 cells; assay type: cell-based; details: a-431
# [2] = target: T1, Phosphatidylinositol 4-kinase, PI4K; assay: Inhibition of Phosphatidylinositol 4-kinase of human epidermoid carcinoma A431 cells (Not prepared); assay type: cell-based; details: a-431
SMILES,IC50 [1],IC50 [2]
N#CCCNC(=O)c1c[nH]c2nc(N)nc(O)c12,0.45 µg/mL,–
NC(=O)NCCCNC(=O)c1c[nH]c2nc(N)nc(O)c12,–,Not prepared
N=C(N)NCCCNC(=O)c1c[nH]c2nc(N)nc(O)c12,0.15 µg/mL,–
NC(=O)CCNC(=O)c1c[nH]c2nc(N)nc(O)c12,0.02 µg/mL,–
N=C(S)CCNC(=O)c1c[nH]c2nc(N)nc(O)c12,–,Not prepared
COC(=O)CCNC(=O)c1c[nH]c2nc(N)nc(O)c12,0.3 µg/mL,–
"N=C(N)CCNC(=O)c1cn(C2O[C@H](CO)C(O)[C@H]2O)c2nc(N)nc(O)c12 (single isomer, unassigned)",100 µg/mL,–
"NCCCNC(=O)c1cn(C2O[C@H](CO)C(O)[C@H]2O)c2nc(N)nc(O)c12 (single isomer, unassigned)",> 100 µg/mL,–
"N=C(S)CCNC(=O)c1cn(C2O[C@H](CO)C(O)[C@H]2O)c2nc(N)nc(O)c12 (single isomer, unassigned)",> 100 µg/mL,–
"NC(=O)CCNC(=O)c1cn(C2O[C@H](CO)C(O)[C@H]2O)c2nc(N)nc(O)c12 (single isomer, unassigned)",2.4 µg/mL,–
"NC(=O)NCCCNC(=O)c1cn(C2O[C@H](CO)C(O)[C@H]2O)c2nc(N)nc(O)c12 (single isomer, unassigned)",1 µg/mL,–
"N=C(N)NCCCNC(=O)c1cn(C2O[C@H](CO)C(O)[C@H]2O)c2nc(N)nc(O)c12 (single isomer, unassigned)",7.5 µg/mL,–
"COC(=O)CCNC(=O)c1cn(C2O[C@H](CO)C(O)[C@H]2O)c2nc(N)nc(O)c12 (single isomer, unassigned)",25 µg/mL,–
"N#CCCNC(=O)c1cn(C2O[C@H](CO)C(O)[C@H]2O)c2nc(N)nc(O)c12 (single isomer, unassigned)",> 100 µg/mL,–
NCCCNC(=O)c1c[nH]c2nc(N)nc(O)c12 [ECHIGUANINE B],0.18 µg/mL,–
